The record followed here is ChEMBL document CHEMBL1156987, “Novel azalides derived from 16-membered macrolides. III. Azalides modified at the C-15 and 4'' positions: Improved antibacterial activities” (Bioorg Med Chem, 2010).

Each structure is given as a SMILES string. In brackets after ≈: the same amount, converted by molar mass. Bounds are passed on as bounds.

Data set [1] has as its system Staphylococcus aureus. In words: Antibacterial activity against Staphylococcus aureus 209P JC1 after 20 hrs by agar dilution method. The data set is classed as functional. To be noted: 209P JC1, 20 h.
In data set [2] the test system is Streptococcus pneumoniae. In words: Antibacterial activity against Streptococcus pneumoniae DP1 type 1 after 20 hrs by agar dilution method. The class given is functional. To be noted: DP1 type1, 20 h. (Agar dilution tests growth on a series of plates holding different concentrations.)
In data set [3] the test system is Streptococcus pneumoniae. The data set is described as follows: Antibacterial activity against Streptococcus pneumoniae 5 expressing constitutive ermB methylase after 20 hrs by agar dilution method. The data set is classed as functional. The settings on record: Streptococcus pneumoniae, 5, 20 h.
Data set [4] relates to Streptococcus pneumoniae. The data set is described as follows: Antibacterial activity against Streptococcus pneumoniae 6 expressing constitutive ermB methylase and mefA after 20 hrs by agar dilution method. The class given is functional. The settings on record: Streptococcus pneumoniae, 6, 20 h.
Data set [5] deals with Streptococcus pneumoniae. The data set is described as follows: Antibacterial activity against Streptococcus pneumoniae 7 expressing constitutive ermB methylase after 20 hrs by agar dilution method. The data set is classed as functional. The settings on record: Streptococcus pneumoniae, 7, 20 h.
Data set [6] relates to Streptococcus pneumoniae. The data set is described as follows: Antibacterial activity against Streptococcus pneumoniae 8 expressing inducible ermB methylase after 20 hrs by agar dilution method. To be noted: Streptococcus pneumoniae, 8, 20 h. The data set is classed as functional.
In data set [7] the test system is Streptococcus pneumoniae. In words: Antibacterial activity against Streptococcus pneumoniae 9 expressing inducible ermB methylase after 20 hrs by agar dilution method. The data set is classed as functional. The settings on record: Streptococcus pneumoniae, 9, 20 h.
Data set [8] has as its system Streptococcus pneumoniae. In words: Antibacterial activity against Streptococcus pneumoniae 10 expressing mefA efflux pump after 20 hrs by agar dilution method. The class given is functional. To be noted: Streptococcus pneumoniae, 10, 20 h.
Data set [9] has as its system Streptococcus pneumoniae. The data set is described as follows: Antibacterial activity against Streptococcus pneumoniae 11 expressing mefA efflux pump after 20 hrs by agar dilution method. The class given is functional. To be noted: Streptococcus pneumoniae, 11, 20 h.
The test system of data set [10] is Streptococcus pyogenes. In words: Antibacterial activity against Streptococcus pyogenes Cook after 20 hrs by agar dilution method. The data set is classed as functional.
For data set [11], the system named is Streptococcus pyogenes. The data set is described as follows: Antibacterial activity against Streptococcus pyogenes 2 expressing constitutive ermB methylase after 20 hrs by agar dilution method. The settings on record: Streptococcus pyogenes, 2, 20 h. The class given is functional.
The subject of data set [12] is Streptococcus pyogenes. The data set is described as follows: Antibacterial activity against Streptococcus pyogenes 3 expressing mefA efflux pump after 20 hrs by agar dilution method. The data set is classed as functional. To be noted: Streptococcus pyogenes, 3, 20 h.
Data set [13] has as its system Haemophilus influenzae. The data set is described as follows: Antibacterial activity against Haemophilus influenzae 1 after 20 hrs by agar dilution method. The class given is functional. The settings on record: Haemophilus influenzae, 1, 20 h.
For data set [14], the system named is Haemophilus influenzae. The data set is described as follows: Antibacterial activity against Haemophilus influenzae 2 after 20 hrs by agar dilution method. The class given is functional. To be noted: Haemophilus influenzae, 2, 20 h.
The subject of data set [15] is Haemophilus influenzae. In words: Antibacterial activity against Haemophilus influenzae 3 after 20 hrs by agar dilution method. The class given is functional. To be noted: Haemophilus influenzae, 3, 20 h.
The nature of data set [16]: Metabolic stability at human liver S9 fraction assessed as compound remaining after 1 hr. The class given is ADME, subcellular. The settings on record: read-out: Stability.

Take `CC[C@H]1OC(=O)[C@H](C)C(=O)[C@H](C)[C@@H](O[C@@H]2O[C@H](C)C[C@H](N(C)C)[C@H]2O)[C@](C)(OC)C[C@@H](C)C(=O)[C@H](C)[C@H]2N(CCCCn3cnc(-c4cccnc4)c3)C(=O)O[C@]12C` [TELITHROMYCIN]: the MIC is 0.03 µg/mL (≈ 0.0369 µM) in data set [1]; less than 8 ng/mL in [2]; 0.5 µg/mL (≈ 0.616 µM) in data set [3]; 1 µg/mL (≈ 1.23 µM) in data set [4]; 1 µg/mL (≈ 1.23 µM) in data set [5]; 0.06 µg/mL (≈ 0.0739 µM) in data set [6]. Also, the MIC is 0.06 µg/mL (≈ 0.0739 µM) in [7]; 0.06 µg/mL (≈ 0.0739 µM) in [8]; 0.06 µg/mL (≈ 0.0739 µM) in [9]; less than 8 ng/mL in [10]; 16 µg/mL (≈ 19.7 µM) in data set [11]; 0.5 µg/mL (≈ 0.616 µM) in data set [12]. Besides, the results for the MIC in data set [13], in data set [14] and in data set [15] were 0.5 µg/mL (≈ 0.616 µM), 2 µg/mL (≈ 2.46 µM) and 1 µg/mL (≈ 1.23 µM), respectively. Further, the remaining at 1 h in [16] was 84%.
